From patent US12084444B2, “Spiro-lactam NMDA modulators and methods of using same” (Tenacia Biotechnology (Hong Kong) Co., Limited, priority 2016, dated 2024)

Key:
Format in all cases: biochemical
[1] = target: T1, NMDAR2A expressing HEK cell membranes (Homo sapiens, UniProt Q12879); assay: NMDAR agonist assay, [3H]MK-801 binding, NMDAR2A; design: key to NMDAR2A B: log EC50: 0=−; ≥1×10^−9 M (e.g., −8)=+; <1×10^−9 M (e.g., −10)=++; settings: 50 μM glutamate; for EC50: read-out: NMDAR2A B: log EC50 (converted)
T1 construct: expressed in transfected cells; host or cells: HEK cells (membrane extract)
T1 sequence (Q12879 23-1464, other chains not shown): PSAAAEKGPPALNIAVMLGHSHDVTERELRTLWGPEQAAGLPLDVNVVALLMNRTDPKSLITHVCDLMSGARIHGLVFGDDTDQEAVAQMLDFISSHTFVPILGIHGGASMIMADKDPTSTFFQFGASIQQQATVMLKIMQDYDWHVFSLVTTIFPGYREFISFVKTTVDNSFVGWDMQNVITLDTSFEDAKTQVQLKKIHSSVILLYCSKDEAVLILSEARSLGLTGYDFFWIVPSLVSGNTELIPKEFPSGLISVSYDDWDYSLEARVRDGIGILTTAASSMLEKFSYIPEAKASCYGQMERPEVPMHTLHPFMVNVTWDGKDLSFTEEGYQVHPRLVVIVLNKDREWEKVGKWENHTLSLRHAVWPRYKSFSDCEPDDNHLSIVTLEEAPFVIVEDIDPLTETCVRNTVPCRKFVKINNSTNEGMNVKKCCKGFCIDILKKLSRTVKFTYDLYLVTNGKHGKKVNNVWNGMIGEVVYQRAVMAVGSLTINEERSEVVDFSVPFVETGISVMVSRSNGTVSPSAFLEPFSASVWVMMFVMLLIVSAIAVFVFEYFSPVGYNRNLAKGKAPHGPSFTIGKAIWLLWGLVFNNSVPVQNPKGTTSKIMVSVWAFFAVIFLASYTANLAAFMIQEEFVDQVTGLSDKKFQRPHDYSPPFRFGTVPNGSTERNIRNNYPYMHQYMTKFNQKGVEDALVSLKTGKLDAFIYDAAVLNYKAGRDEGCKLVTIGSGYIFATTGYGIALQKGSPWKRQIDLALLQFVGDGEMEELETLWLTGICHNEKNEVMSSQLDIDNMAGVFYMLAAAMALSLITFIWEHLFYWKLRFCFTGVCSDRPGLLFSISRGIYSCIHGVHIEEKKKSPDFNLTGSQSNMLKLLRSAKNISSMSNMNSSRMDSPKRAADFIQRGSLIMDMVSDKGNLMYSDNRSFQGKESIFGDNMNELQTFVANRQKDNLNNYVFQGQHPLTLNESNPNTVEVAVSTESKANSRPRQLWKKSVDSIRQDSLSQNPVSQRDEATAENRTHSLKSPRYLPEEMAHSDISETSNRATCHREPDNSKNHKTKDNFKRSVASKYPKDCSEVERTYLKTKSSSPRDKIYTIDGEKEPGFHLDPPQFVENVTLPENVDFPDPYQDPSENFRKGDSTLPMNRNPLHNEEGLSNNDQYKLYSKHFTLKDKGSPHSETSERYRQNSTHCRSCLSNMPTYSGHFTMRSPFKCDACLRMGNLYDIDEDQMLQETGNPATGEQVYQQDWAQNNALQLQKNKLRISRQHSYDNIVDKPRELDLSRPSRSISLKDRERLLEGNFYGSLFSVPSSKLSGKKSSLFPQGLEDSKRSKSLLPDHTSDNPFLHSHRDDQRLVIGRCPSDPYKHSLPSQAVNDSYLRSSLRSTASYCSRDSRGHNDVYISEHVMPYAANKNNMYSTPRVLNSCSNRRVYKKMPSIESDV
Experimental: (§1) Assays were conducted as described by Moskal et al., “GLYX-13: a monoclonal antibody-derived peptide that acts as an N-methyl-D-aspartate receptor modulator,” Neuropharmacology, 49, 1077-87, 2005. These studies were designed to determine if the test compounds act to facilitate NMDAR activation in NMDAR2A, NMDAR2B, NMDAR2C or NMDAR2D expressing HEK cell membranes as measured by increases in [^3H]MK-801 binding.
(§2) In the assay, 300 μg of NMDAR expressing HEK cell membrane extract protein was preincubated for 15 minutes at 25° C. in the presence of saturating concentrations of glutamate (50 μM) and varying concentrations of test compound (1×10^−15 M-1×10^−7 M), or 1 mM glycine. Following the addition of 0.3 μCi of [^3H]MK-801 (22.5 Ci/mmol), reactions were again incubated for 15 minutes at 25° C. (nonequilibrium conditions). Bound and free [^3H]MK-801 were separated via rapid filtration using a Brandel apparatus.
(§3) In analyzing the data, the DPM (disintegrations per minute) of [^3H]MK-801 remaining on the filter were measured for each concentration of test compound or for 1 mM glycine. The DPM values for each concentration of a ligand (N=2) were averaged. The baseline value was determined from the best fit curve of the DPM values modeled using the GraphPad program and the log(agonist) vs. response(three parameters) algorithm was then subtracted from all points in the dataset. The % maximal [^3H]MK-801 binding was then calculated relative to that of 1 mM glycine: all baseline subtracted DPM values were divided by the average value for 1 mM glycine. The EC50 and % maximal activity were then obtained from the best fit curve of the % maximal [^3H]MK-801 binding data modelled using the GraphPad program and the log(agonist) vs. response(three parameters) algorithm.
(§4) The tables below summarize the results for the wild type NMDAR agonists NMDAR2A, NMDAR2B, NMDAR2C, and NMDAR2D, and whether the compound is not an agonist (−), is an agonist (+), or is a strong agonist (++), where column A is based on the % maximal [^3H]MK-801 binding relative to 1 mM glycine (−=0; <100%=+; and >100%=++); and column B is based on log EC50 values (0=−; ≥1×10^−9 M (e.g., −8)=+; and <1×10^−9 M (e.g., −10)=++).

[2] = target: T2, NMDAR2B expressing HEK cell membranes (Homo sapiens, UniProt Q13224); assay: NMDAR agonist assay, [3H]MK-801 binding, NMDAR2B; design: key to NMDAR2B B: log EC50: 0=−; ≥1×10^−9 M (e.g., −8)=+; <1×10^−9 M (e.g., −10)=++; settings: 50 μM glutamate; for EC50: read-out: NMDAR2B B: log EC50 (converted)
T2 construct: expressed in transfected cells; host or cells: HEK cells (membrane extract)
Experimental: as §1, §2, §3, §4

[3] = target: T3, NMDAR2A expressing HEK cell membranes (Homo sapiens, UniProt Q05586+Q12879); assay: NMDAR agonist assay, [3H]MK-801 binding, NMDAR2A; design: key to NMDAR2A B: log EC50: 0=−; ≥1×10^−9 M (e.g., −8)=+; <1×10^−9 M (e.g., −10)=++; settings: 50 μM glutamate; for Emax: 0.25 h, read-out: NMDAR2A A: % maximal [3H]MK-801 binding relative to 1 mM glycine; for EC50: read-out: NMDAR2A B: log EC50 (converted)
T3 construct: expressed in transfected cells; host or cells: HEK cells (membrane extract)
T3 sequence (Q12879 23-1464, other chains not shown): as above
Experimental: as §1, §2, §3, §4

[4] = target: T4, NMDAR2B expressing HEK cell membranes (Homo sapiens, UniProt Q05586+Q13224); assay: NMDAR agonist assay, [3H]MK-801 binding, NMDAR2B; design: key to NMDAR2B B: log EC50: 0=−; ≥1×10^−9 M (e.g., −8)=+; <1×10^−9 M (e.g., −10)=++; settings: 50 μM glutamate; for Emax: 0.25 h, read-out: NMDAR2B A: % maximal [3H]MK-801 binding relative to 1 mM glycine; for EC50: read-out: NMDAR2B B: log EC50 (converted)
T4 construct: expressed in transfected cells; host or cells: HEK cells (membrane extract)
T4 sequence (Q13224 27-1484, other chains not shown): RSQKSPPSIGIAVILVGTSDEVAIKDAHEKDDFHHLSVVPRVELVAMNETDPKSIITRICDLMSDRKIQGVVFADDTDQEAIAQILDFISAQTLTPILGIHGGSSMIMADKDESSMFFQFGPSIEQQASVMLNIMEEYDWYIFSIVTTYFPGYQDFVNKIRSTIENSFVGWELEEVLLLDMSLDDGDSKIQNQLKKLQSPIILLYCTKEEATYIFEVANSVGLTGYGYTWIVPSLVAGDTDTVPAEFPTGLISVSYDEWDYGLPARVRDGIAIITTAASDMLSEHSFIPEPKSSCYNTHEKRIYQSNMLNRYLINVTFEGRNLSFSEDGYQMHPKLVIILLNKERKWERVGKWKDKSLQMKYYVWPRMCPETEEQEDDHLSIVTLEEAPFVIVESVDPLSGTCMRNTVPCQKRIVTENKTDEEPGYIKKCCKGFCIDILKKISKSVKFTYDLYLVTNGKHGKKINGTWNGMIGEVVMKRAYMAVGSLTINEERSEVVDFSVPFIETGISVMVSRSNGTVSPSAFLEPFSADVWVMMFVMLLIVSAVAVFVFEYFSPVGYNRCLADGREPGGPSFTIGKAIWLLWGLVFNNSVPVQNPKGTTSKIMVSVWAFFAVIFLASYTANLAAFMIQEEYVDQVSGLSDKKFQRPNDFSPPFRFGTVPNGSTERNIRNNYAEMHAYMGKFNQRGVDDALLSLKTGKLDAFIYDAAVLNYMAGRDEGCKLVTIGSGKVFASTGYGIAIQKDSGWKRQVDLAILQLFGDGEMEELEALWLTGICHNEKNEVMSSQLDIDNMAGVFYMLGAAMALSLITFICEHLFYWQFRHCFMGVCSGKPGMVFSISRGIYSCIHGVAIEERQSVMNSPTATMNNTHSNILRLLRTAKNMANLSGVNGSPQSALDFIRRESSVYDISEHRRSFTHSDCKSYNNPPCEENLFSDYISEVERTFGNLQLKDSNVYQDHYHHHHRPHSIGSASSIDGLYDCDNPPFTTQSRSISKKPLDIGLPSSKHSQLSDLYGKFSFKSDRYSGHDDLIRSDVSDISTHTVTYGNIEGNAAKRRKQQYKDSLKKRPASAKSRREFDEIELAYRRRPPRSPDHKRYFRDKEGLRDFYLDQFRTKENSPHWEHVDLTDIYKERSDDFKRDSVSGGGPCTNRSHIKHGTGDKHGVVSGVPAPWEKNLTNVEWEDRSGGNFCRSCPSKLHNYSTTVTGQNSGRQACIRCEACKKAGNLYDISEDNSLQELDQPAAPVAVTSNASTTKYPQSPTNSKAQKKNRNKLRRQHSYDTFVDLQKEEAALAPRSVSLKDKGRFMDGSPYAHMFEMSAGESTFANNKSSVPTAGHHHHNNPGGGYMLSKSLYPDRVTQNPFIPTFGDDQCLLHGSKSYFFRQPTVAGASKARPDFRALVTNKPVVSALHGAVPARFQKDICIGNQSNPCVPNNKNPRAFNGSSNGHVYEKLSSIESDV
Experimental: as §1, §2, §3, §4

Row | NMDAR2A A: % maximal [3H]MK-801 binding relative to 1 mM glycine [1] | EC50 [1] [nM] | NMDAR2B A: % maximal [3H]MK-801 binding relative to 1 mM glycine [2] | EC50 [2] [nM] | Emax [3] [%] | NMDAR2A B: log EC50 [1] | Emax [4] [%] | NMDAR2B B: log EC50 [2] | EC50 [4] [nM] | EC50 [3] [nM] | SMILES
1 |  |  |  |  | 0 | − | 0 | − |  |  | COc1ccc(CN2CC3(CCNC(=S)C3)C2=O)cc1 (single isomer, unassigned) [CM, 2-(4-methoxybenzyl)-6-thioxo-2,7-diazaspiro[3.5]nonan-1-one]
2 | + (<100%=+) | < 1 | ++ (>100%=++) |  |  |  |  |  | < 1 |  | CN1CC2(CCNC(=O)C2)C1=O (single isomer, unassigned) [DH, 2-methyl-2,7-diazaspiro[3.5]nonane-1,6-dione]
3 |  |  |  |  | 0 | − | 0 | − |  |  | C[C@@H](O)[C@@H](C(=O)NCc1ccccc1)N1CC2(CCNC(=O)C2)C1=O (stereo partly drawn) [CA, (2S,3R)—N-benzyl-2-(1,6-dioxo-2,7-diazaspiro[3.5]nonan-2-yl)-3-hydroxybutanamide]
4 | + (<100%=+) |  | + (<100%=+) | < 1 |  |  |  |  |  | < 1 | C[C@@H](O)[C@@H](C(=O)N(C)C)N1CC2(CCNC(=O)C2)C1=O (single isomer, unassigned) [CD]
5 | + (<100%=+) |  | + (<100%=+) | < 1 |  |  |  |  |  | < 1 | O=C1CC2(CCN1)CN(Cc1ccccc1)C2=O (single isomer, unassigned) [CV, 2-benzyl-2,7-diazaspiro[3.5]nonane-1,6-dione]
6 |  |  |  |  | 0 | − | 0 | − |  |  | CNC(=O)[C@H]([C@@H](C)O)N1CC2(CCNC(=O)C2)C1=O (stereo partly drawn) [DA, (2S,3R)-2-(1,6-dioxo-2,7-diazaspiro[3.5]nonan-2-yl)-3-hydroxy-N-methylbutanamide]
7 |  |  |  |  | > 100 |  | 0 | − |  | ≥ 1 | CC1CC(=O)N(c2ccc(F)cc2)C12CN([C@H](C(N)=O)[C@@H](C)O)C2=O (single isomer, unassigned) [DK]
8 | + (<100%=+) | < 1 | − (−=0) |  |  |  |  | − |  |  | COc1ccc(CN2CC3(CCN(CC(C)C)C(=O)C3)C2=O)cc1 (single isomer, unassigned) [CT, 7-isobutyl-2-(4-methoxybenzyl)-2,7-diazaspiro[3.5]nonane-1,6-dione]
9 | − (−=0) |  | + (<100%=+) | < 1 |  | − |  |  |  |  | NC(=O)CN1CC2(CCNC(=O)C2)C1=O (single isomer, unassigned) [DD, 2-(1,6-dioxo-2,7-diazaspiro[3.5]nonan-2-yl)acetamide]
10 |  | < 1 |  | < 1 |  |  |  |  |  |  | CC(C)CN1CC2(CCNC(=O)C2)C1=O (single isomer, unassigned) [DF, 2-isobutyl-2,7-diazaspiro[3.5]nonane-1,6-dione]
11 |  |  | ++ (>100%=++) |  | < 100 |  |  |  | < 1 | < 1 | COc1ccc(CN2CC3(CCN(CC(C)C)C(=O)C3)C2=O)cc1 (single isomer, unassigned) [CS, 7-isobutyl-2-(4-methoxybenzyl)-2,7-diazaspiro[3.5]nonane-1,6-dione]
12 | + (<100%=+) |  | − (−=0) |  |  |  |  | − |  | < 1 | CC1CC(=O)N(c2ccc(F)cc2)C12CN([C@H](C(N)=O)[C@@H](C)O)C2=O (single isomer, unassigned) [DL]

More lines, now with the values behind:

Row | SMILES | NMDAR2A A: % maximal [3H]MK-801 binding relative to 1 mM glycine [1] | EC50 [1] [nM] | NMDAR2B A: % maximal [3H]MK-801 binding relative to 1 mM glycine [2] | EC50 [2] [nM] | Emax [3] [%] | NMDAR2A B: log EC50 [1] | Emax [4] [%] | NMDAR2B B: log EC50 [2] | EC50 [4] [nM] | EC50 [3] [nM]
13 | COc1ccc(CN2CC3(CCN(C)C(=O)C3)C2=O)cc1 (single isomer, unassigned) [CJ, 2-(4-methoxybenzyl)-7-methyl-2,7-diazaspiro[3.5]nonane-1,6-dione] | + (<100%=+) | < 1 | ++ (>100%=++) | < 1 |  |  |  |  |  | 
14 | CC1C(N)C(=O)N(C)C12CN(Cc1ccccc1)C2=O (centres unmarked) [CH, 7-amino-2-benzyl-5,8-dimethyl-2,5-diazaspiro[3.4]octane-1,6-dione] |  |  |  |  | 0 | − | 0 | − |  | 
15 | CCN1CCC2(CC1=O)CN(Cc1ccc(OC)cc1)C2=O (centres unmarked) [CK, 7-ethyl-2-(4-methoxybenzyl)-2,7-diazaspiro[3.5]nonane-1,6-dione] |  |  |  |  | 0 | − | 0 | − |  | 
16 | CC1CC(=O)N(c2ccc(F)cc2)C12CN(Cc1ccccc1)C2=O (centres unmarked) [BY, 2-benzyl-5-(4-fluorophenyl)-8-methyl-2,5-diazaspiro[3.4]octane-1,6-dione] |  |  |  |  | 0 | − | 0 | − |  | 
17 | CC1CC(=O)N(c2ccc(F)cc2)C12CN(CC(N)=O)C2=O (centres unmarked) [CE, 2-(5-(4-fluorophenyl)-8-methyl-1,6-dioxo-2,5-diazaspiro[3.4]octan-2-yl)acetamide] |  |  |  |  | 0 | − | 0 | − |  | 
18 | CC1C(O)C(=O)N(C)C12CN(Cc1ccccc1)C2=O (single isomer, unassigned) [DM, 2-benzyl-7-hydroxy-5,8-dimethyl-2,5-diazaspiro[3.4]octane-1,6-dione] |  |  |  |  | < 100 |  | 0 | − |  | ≥ 1
19 | COc1ccc(CN2CC3(CCNC(=S)C3)C2=S)cc1 (single isomer, unassigned) [CP, 2-(4-methoxybenzyl)-2,7-diazaspiro[3.5]nonane-1,6-dithione] | + (<100%=+) | < 1 | + (<100%=+) |  |  |  |  |  | < 1 | 
20 | CC1CC(=O)N(C)C12CN(CC(N)=O)C2=O (single isomer, unassigned) [DJ, 2-(5,8-dimethyl-1,6-dioxo-2,5-diazaspiro[3.4]octan-2-yl)acetamide] | − (−=0) |  | + (<100%=+) | < 1 |  | − |  |  |  | 
21 | CCN1CCC2(CC1=O)CN(Cc1ccccc1)C2=O (single isomer, unassigned) [CY, 2-benzyl-7-ethyl-2,7-diazaspiro[3.5]nonane-1,6-dione] |  |  |  |  | < 100 |  | 0 | − |  | < 1
22 | CN1CCC2(CC1=O)CN(Cc1ccccc1)C2=O (single isomer, unassigned) [CX, 2-benzyl-7-methyl-2,7-diazaspiro[3.5]nonane-1,6-dione] | + (<100%=+) | < 1 | + (<100%=+) | < 1 |  |  |  |  |  | 
